The values that follow are results of earlier work, collected in PMC11581222, “Inhibition of CCl4-induced liver inflammation and fibrosis by a NEU3 inhibitor” (PLOS ONE, 2024).

Series [1] deals with high fat diet (HFD)-induced liver inflammation, weight gain and steatosis. Further details: method as in PMID 33039353. The settings on record: injections, cited from earlier work.
The test system of series [2] is bleomycin-induced pulmonary fibrosis. As to conditions: cited from earlier work.
Series [3] concerns human recombinant NEU3. Also noted: method as in PMID 33144389. As to conditions: NEU3 species not specified for DANA; read-out: inhibition of active TGF-β1 release; cited from earlier work.
Series [4] has as its system MCD diet-induced liver fibrosis. Further details: method as in PMID 33378413. The settings on record: cited from earlier work.

Structures are written as SMILES.

As to `CC(=O)N[C@H]1[C@H]([C@H](O)[C@H](O)CO)OC(C(=O)O)=C[C@@H]1O` [DANA, N-acetyl-2,3-dehydro-2-deoxyneuraminic acid], in series [1], the “HFD induced weight gain and steatosis” value is “inhibited HFD induced weight gain and steatosis”. Also, the HFD-induced liver inflammation result in series [1] (male mice) is “attenuate high fat diet (HFD)-induced liver inflammation”. Moreover, the “desialylation in lung fibrosis” value in series [2] was “reversed desialylation in lung fibrosis”. In series [2] (injections, male mice), the pulmonary fibrosis result is reported as “attenuate bleomycin-induced pulmonary fibrosis”. Further, in series [3], the IC50 was > 100 µM. Besides, the “MCD diet-induced liver fibrosis” value in series [4] was “inhibits methionine and choline-deficient (MCD) diet-induced liver fibrosis”.
